Assay results from ChEMBL document CHEMBL4706518, “Discovery of MGS0274, an ester prodrug of a metabotropic glutamate receptor 2/3 agonist with improved oral bioavailability” (Eur J Med Chem, 2020).
Values belong to the molecule of their own block, whether it stands above or below them. Calls of active or inactive are those of the source. No cut-off for these calls is given here.

What was measured:
[1] = target: Sigma intracellular receptor 2 (Homo sapiens) (UniProt Q5BJF2); test: Binding affinity to sigma2 receptor (unknown origin) 10 umol/L by radioligand binding assay; conditions: dose 10.0 µmol/L
[2] = target: Vasopressin V1b receptor (Homo sapiens) (UniProt P47901); test: Binding affinity to Vasopressin V1b receptor (unknown origin) 10 umol/L by radioligand binding assay; conditions: dose 10.0 µmol/L
[3] = target: Melatonin receptor type 1A (Homo sapiens) (UniProt P48039); test: Binding affinity to MT1 receptor (unknown origin) 10 umol/L by radioligand binding assay; conditions: dose 10.0 µmol/L
[4] = target: Alpha-1B adrenergic receptor (Homo sapiens) (UniProt P35368); test: Binding affinity to alpha1B adrenoreceptor (unknown origin) 10 umol/L by radioligand binding assay; conditions: dose 10.0 µmol/L
[5] = target: Kappa-type opioid receptor (Homo sapiens) (UniProt P41145); test: Binding affinity to kappa receptor (unknown origin) 10 umol/L by radioligand binding assay; conditions: dose 10.0 µmol/L
[6] = target: Neuromedin-K receptor (Homo sapiens) (UniProt P29371); test: Binding affinity to NK3 receptor (unknown origin) 10 umol/L by radioligand binding assay; conditions: dose 10.0 µmol/L
[7] = target: Delta-type opioid receptor (Homo sapiens) (UniProt P41143); test: Binding affinity to delta opioid receptor (unknown origin) 10 umol/L by radioligand binding assay; conditions: dose 10.0 µmol/L
Homo sapiens [8] = organism: Homo sapiens; test: Binding affinity to Monoamine transporter (unknown origin) 10 umol/L by radioligand binding assay; conditions: dose 10.0 µmol/L
[9] = target: Substance-K receptor (Homo sapiens) (UniProt P21452); test: Binding affinity to NK2 receptor (unknown origin) 10 umol/L by radioligand binding assay; conditions: dose 10.0 µmol/L
[10] = target: Prostaglandin E2 receptor EP2 subtype (Homo sapiens) (UniProt P43116); test: Binding affinity to Prostanoid EP2 receptor (unknown origin) 10 umol/L by radioligand binding assay; conditions: dose 10.0 µmol/L
[11] = target: Neurotensin receptor type 1 (Homo sapiens) (UniProt P30989); test: Binding affinity to NT1 receptor (unknown origin) 10 umol/L by radioligand binding assay; conditions: dose 10.0 µmol/L
Homo sapiens [12] = organism: Homo sapiens; test: Binding affinity to GABAB (unknown origin) 10 umol/L by radioligand binding assay; conditions: dose 10.0 µmol/L
[13] = target: Sigma non-opioid intracellular receptor 1 (Homo sapiens) (UniProt Q99720); test: Binding affinity to sigma1 receptor (unknown origin) 10 umol/L by radioligand binding assay; conditions: dose 10.0 µmol/L
[14] = target: Muscarinic acetylcholine receptor M2 (Homo sapiens) (UniProt P08172); test: Binding affinity to muscarinic M2 (unknown origin) 10 umol/L by radioligand binding assay; conditions: dose 10.0 µmol/L
Homo sapiens [15] = organism: Homo sapiens; test: Binding affinity to IP3 receptor (unknown origin) 10 umol/L by radioligand binding assay; conditions: dose 10.0 µmol/L
Homo sapiens [16] = organism: Homo sapiens; test: Binding affinity to nACh receptor (unknown origin) 10 umol/L by radioligand binding assay; conditions: dose 10.0 µmol/L
Homo sapiens [17] = organism: Homo sapiens; test: Binding affinity to D4.2 receptor (unknown origin) 10 umol/L by radioligand binding assay; conditions: dose 10.0 µmol/L
[18] = target: Muscarinic acetylcholine receptor M1 (Homo sapiens) (UniProt P11229); test: Binding affinity to muscarinic M1 (unknown origin) 10 umol/L by radioligand binding assay; conditions: dose 10.0 µmol/L
Homo sapiens [19] = organism: Homo sapiens; test: Binding affinity to NMDA receptor PCP site (unknown origin) 10 umol/L by radioligand binding assay; conditions: dose 10.0 µmol/L
[20] = target: Adenosine receptor A2a (Homo sapiens) (UniProt P29274); test: Binding affinity to A2a receptor (unknown origin) at 10 umol/L by radioligand binding assay; conditions: dose 10.0 µmol/L
[21] = target: Sodium-dependent noradrenaline transporter (Homo sapiens) (UniProt P23975); test: Binding affinity to norepinephrine transporter (unknown origin) 10 umol/L by radioligand binding assay; conditions: dose 10.0 µmol/L
[22] = target: Muscarinic acetylcholine receptor M4 (Homo sapiens) (UniProt P08173); test: Binding affinity to muscarinic M4 (unknown origin) 10 umol/L by radioligand binding assay; conditions: dose 10.0 µmol/L
[23] = target: Muscarinic acetylcholine receptor M5 (Homo sapiens) (UniProt P08912); test: Binding affinity to muscarinic M5 (unknown origin) 10 umol/L by radioligand binding assay; conditions: dose 10.0 µmol/L
[24] = target: Metabotropic glutamate receptor 3 (Homo sapiens, UniProt Q14832); test: Agonist activity at human mGlu3 receptor expressed in CHO cell membranes by GTPgammaS binding assay; format: functional, Cell membrane
Homo sapiens [25] = organism: Homo sapiens; test: Binding affinity to bombesin receptor (unknown origin) 10 umol/L by radioligand binding assay; conditions: dose 10.0 µmol/L
[26] = Lipophilicity, logD of compound in n-octanol and phosphate buffered saline at 2 mg after 1.5 hrs by HPLC based shake flask method; format: physicochemical
[27] = target: Type-2 angiotensin II receptor (Homo sapiens) (UniProt P50052); test: Binding affinity to AT2 receptor (unknown origin) 10 umol/L by radioligand binding assay; conditions: dose 10.0 µmol/L
[28] = target: Neuropeptide Y receptor type 2 (Homo sapiens) (UniProt P49146); test: Binding affinity to Y2 receptor (unknown origin) 10 umol/L by radioligand binding assay; conditions: dose 10.0 µmol/L
Homo sapiens [29] = organism: Homo sapiens; test: Binding affinity to Imidazole receptor (unknown origin) 10 umol/L by radioligand binding assay; conditions: dose 10.0 µmol/L
[30] = target: Voltage-gated L-type calcium channel (Homo sapiens, UniProt Q13936+Q13698+Q01668+O60840); test: Binding affinity to Voltage-dependent L-type calcium channel dihydropyridine site (unknown origin) 10 umol/L by radioligand binding assay; format: protein assay; conditions: 10 µM, dose 10 µmol/L
[31] = target: D(1B) dopamine receptor (Homo sapiens) (UniProt P21918); test: Binding affinity to D5 receptor (unknown origin) 10 umol/L by radioligand binding assay; conditions: dose 10.0 µmol/L
Homo sapiens [32] = organism: Homo sapiens; test: Binding affinity to Vasopressin V1 receptor (unknown origin) 10 umol/L by radioligand binding assay; conditions: dose 10.0 µmol/L
Homo sapiens [33] = organism: Homo sapiens; test: Binding affinity to Small conductance calcium-activated potassium channel (unknown origin) 10 umol/L by radioligand binding assay; conditions: dose 10.0 µmol/L
Homo sapiens [34] = organism: Homo sapiens; test: Binding affinity to GABAA chloride channel central (unknown origin) 10 umol/L by radioligand binding assay; conditions: dose 10.0 µmol/L
[35] = target: Platelet-activating factor receptor (Homo sapiens) (UniProt P25105); test: Binding affinity to PAF receptor (unknown origin) 10 umol/L by radioligand binding assay; conditions: dose 10.0 µmol/L
Homo sapiens [36] = organism: Homo sapiens; test: Binding affinity to Potassium voltage-gated channel (unknown origin) 10 umol/L by radioligand binding assay; conditions: dose 10.0 µmol/L
[37] = target: Alpha-1A adrenergic receptor (Homo sapiens) (UniProt P35348); test: Binding affinity to alpha1A adrenoreceptor (unknown origin) 10 umol/L by radioligand binding assay; conditions: dose 10.0 µmol/L
[38] = target: 5-hydroxytryptamine receptor 3A (Homo sapiens) (UniProt P46098); test: Binding affinity to 5-HT3 receptor (unknown origin) 10 umol/L by radioligand binding assay; conditions: dose 10.0 µmol/L
[39] = target: Type-1 angiotensin II receptor (Homo sapiens) (UniProt P30556); test: Binding affinity to AT1 receptor (unknown origin) 10 umol/L by radioligand binding assay; conditions: dose 10.0 µmol/L
[40] = target: Alpha-2B adrenergic receptor (Homo sapiens) (UniProt P18089); test: Binding affinity to alpha2B adrenoreceptor (unknown origin) 10 umol/L by radioligand binding assay; conditions: dose 10.0 µmol/L
[41] = target: Cysteinyl leukotriene receptor 1 (Homo sapiens) (UniProt Q9Y271); test: Binding affinity to Leukotriene D4 receptor (unknown origin) 10 umol/L by radioligand binding assay; conditions: dose 10.0 µmol/L
[42] = target: Cannabinoid receptor 1 (Homo sapiens) (UniProt P21554); test: Binding affinity to CB1 (unknown origin) 10 umol/L by radioligand binding assay; conditions: dose 10.0 µmol/L
[43] = target: B2 bradykinin receptor (Homo sapiens) (UniProt P30411); test: Binding affinity to B2 receptor (unknown origin) 10 umol/L by radioligand binding assay; conditions: dose 10.0 µmol/L

Sequence of Muscarinic acetylcholine receptor M5 (Homo sapiens) (P08912 whole entry): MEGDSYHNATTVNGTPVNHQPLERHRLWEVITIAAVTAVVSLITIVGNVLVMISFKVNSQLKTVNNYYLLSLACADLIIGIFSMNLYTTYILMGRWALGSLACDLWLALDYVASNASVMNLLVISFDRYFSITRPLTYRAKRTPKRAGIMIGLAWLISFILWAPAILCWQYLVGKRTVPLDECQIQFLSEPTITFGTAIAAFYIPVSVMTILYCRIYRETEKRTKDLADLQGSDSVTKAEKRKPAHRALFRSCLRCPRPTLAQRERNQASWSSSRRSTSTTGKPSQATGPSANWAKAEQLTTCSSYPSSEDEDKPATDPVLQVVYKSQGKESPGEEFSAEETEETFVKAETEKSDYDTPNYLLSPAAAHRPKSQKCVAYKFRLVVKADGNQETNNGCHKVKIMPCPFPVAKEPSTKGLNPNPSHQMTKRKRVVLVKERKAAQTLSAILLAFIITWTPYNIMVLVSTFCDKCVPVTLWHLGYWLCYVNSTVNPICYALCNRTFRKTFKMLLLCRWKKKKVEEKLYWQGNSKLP
Sequence of Neuromedin-K receptor (Homo sapiens) (P29371 whole entry): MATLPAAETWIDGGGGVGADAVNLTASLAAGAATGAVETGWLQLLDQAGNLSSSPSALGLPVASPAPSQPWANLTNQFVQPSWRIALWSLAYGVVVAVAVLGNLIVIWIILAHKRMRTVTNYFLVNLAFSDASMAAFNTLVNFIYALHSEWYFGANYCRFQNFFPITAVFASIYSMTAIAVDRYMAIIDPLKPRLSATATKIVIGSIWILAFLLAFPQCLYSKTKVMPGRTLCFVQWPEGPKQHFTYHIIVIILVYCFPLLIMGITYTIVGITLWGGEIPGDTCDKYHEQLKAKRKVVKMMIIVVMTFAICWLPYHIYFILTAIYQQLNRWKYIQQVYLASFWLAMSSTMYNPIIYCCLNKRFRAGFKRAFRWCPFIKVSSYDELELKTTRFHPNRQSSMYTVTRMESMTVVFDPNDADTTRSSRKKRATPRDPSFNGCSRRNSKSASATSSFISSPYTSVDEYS
Sequence of Prostaglandin E2 receptor EP2 subtype (Homo sapiens) (P43116 whole entry): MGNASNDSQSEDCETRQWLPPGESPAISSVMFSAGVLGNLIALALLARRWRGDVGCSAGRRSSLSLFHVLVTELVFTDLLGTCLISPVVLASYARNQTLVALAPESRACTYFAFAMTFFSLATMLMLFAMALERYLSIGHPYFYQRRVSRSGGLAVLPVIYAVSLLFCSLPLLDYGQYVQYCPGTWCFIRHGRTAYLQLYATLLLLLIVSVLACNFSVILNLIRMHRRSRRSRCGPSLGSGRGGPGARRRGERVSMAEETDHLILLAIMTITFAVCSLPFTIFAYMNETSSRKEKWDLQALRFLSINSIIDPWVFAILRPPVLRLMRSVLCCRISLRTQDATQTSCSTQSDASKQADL
Sequence of Neuropeptide Y receptor type 2 (Homo sapiens) (P49146 whole entry): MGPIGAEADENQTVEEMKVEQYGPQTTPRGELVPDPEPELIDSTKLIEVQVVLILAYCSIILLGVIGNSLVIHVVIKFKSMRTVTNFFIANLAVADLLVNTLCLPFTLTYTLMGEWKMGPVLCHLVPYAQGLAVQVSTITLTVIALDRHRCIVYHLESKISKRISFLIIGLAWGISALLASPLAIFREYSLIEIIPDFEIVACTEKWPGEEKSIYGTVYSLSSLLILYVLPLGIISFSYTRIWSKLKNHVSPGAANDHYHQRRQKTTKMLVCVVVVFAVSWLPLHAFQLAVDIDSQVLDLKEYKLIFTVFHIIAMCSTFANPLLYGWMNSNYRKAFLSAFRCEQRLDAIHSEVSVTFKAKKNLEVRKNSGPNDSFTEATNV
Sequence of Platelet-activating factor receptor (Homo sapiens) (P25105 whole entry): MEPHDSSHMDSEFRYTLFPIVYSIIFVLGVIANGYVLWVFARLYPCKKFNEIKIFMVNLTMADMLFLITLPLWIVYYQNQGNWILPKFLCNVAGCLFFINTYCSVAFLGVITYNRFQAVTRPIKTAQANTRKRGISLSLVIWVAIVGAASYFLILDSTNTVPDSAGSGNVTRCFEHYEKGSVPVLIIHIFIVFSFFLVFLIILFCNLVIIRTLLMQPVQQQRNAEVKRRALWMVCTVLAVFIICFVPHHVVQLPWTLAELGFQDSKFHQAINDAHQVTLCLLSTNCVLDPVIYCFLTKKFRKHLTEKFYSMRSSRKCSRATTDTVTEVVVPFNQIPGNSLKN
Sequence of D(1B) dopamine receptor (Homo sapiens) (P21918 whole entry): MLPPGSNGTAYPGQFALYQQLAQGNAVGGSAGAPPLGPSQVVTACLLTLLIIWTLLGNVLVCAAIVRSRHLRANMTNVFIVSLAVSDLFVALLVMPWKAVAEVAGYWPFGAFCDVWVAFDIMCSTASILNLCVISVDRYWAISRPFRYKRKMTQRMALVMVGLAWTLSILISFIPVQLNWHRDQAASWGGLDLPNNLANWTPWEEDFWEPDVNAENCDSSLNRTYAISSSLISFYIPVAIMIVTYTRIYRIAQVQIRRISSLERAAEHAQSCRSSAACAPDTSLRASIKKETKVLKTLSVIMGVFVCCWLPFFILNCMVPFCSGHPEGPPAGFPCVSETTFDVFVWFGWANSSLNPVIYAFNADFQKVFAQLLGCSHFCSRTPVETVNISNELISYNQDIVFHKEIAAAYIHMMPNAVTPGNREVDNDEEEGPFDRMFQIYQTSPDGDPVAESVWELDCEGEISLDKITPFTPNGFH
Sequence of Neurotensin receptor type 1 (Homo sapiens) (P30989 whole entry): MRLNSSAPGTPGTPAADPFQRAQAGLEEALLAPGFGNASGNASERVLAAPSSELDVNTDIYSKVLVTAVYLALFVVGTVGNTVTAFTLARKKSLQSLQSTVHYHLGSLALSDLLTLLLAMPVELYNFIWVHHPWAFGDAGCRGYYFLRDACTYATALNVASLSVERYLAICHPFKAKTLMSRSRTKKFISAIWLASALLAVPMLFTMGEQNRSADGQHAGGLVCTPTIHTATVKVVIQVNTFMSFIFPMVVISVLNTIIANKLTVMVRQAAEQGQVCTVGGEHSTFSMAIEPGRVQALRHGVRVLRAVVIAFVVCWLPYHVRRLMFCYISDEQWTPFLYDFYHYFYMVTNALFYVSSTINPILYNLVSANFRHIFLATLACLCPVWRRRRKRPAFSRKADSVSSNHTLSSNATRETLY
Sequence of Sigma intracellular receptor 2 (Homo sapiens) (Q5BJF2 whole entry): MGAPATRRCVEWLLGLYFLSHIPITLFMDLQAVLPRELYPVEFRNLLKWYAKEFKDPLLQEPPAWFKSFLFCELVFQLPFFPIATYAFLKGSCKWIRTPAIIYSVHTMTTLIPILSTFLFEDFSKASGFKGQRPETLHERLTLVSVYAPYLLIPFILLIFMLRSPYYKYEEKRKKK
Sequence of Alpha-1B adrenergic receptor (Homo sapiens) (P35368 whole entry): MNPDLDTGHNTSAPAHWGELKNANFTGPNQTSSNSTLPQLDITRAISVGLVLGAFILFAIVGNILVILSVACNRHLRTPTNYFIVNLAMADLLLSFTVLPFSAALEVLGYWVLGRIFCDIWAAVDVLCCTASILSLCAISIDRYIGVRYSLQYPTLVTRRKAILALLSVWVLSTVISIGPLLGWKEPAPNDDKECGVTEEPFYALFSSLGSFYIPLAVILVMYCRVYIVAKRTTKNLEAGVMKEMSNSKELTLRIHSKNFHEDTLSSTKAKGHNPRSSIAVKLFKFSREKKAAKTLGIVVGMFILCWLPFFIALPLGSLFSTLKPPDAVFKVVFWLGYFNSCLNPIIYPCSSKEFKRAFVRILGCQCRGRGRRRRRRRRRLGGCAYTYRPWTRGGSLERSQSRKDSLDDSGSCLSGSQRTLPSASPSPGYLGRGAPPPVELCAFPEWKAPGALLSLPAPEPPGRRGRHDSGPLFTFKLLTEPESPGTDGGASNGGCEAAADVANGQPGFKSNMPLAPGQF
Sequence of Adenosine receptor A2a (Homo sapiens) (P29274 whole entry): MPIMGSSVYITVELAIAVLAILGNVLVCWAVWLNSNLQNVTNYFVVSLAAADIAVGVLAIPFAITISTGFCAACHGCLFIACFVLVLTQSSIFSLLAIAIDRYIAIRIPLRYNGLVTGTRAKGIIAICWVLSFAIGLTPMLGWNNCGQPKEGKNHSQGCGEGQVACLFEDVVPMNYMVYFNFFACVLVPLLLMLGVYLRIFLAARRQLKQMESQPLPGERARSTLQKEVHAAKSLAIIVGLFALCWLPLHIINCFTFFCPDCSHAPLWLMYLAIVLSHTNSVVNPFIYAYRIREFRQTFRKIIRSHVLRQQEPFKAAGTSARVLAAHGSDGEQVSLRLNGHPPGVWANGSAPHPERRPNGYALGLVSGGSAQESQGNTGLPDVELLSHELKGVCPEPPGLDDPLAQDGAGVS
Sequence of Alpha-1A adrenergic receptor (Homo sapiens) (P35348 whole entry): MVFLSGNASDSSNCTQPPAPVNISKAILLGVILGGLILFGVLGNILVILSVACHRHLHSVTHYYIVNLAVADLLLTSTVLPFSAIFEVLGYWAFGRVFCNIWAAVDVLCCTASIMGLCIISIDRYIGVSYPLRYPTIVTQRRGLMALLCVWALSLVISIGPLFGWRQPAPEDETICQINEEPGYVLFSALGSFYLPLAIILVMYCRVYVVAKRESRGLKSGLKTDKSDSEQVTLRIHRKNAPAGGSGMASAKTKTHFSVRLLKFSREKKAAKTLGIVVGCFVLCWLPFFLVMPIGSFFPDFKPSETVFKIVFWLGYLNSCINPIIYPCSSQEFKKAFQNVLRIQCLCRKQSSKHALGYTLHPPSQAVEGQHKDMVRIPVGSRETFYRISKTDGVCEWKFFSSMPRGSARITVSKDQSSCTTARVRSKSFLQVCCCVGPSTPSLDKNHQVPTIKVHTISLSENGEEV
Sequence of Cysteinyl leukotriene receptor 1 (Homo sapiens) (Q9Y271 whole entry): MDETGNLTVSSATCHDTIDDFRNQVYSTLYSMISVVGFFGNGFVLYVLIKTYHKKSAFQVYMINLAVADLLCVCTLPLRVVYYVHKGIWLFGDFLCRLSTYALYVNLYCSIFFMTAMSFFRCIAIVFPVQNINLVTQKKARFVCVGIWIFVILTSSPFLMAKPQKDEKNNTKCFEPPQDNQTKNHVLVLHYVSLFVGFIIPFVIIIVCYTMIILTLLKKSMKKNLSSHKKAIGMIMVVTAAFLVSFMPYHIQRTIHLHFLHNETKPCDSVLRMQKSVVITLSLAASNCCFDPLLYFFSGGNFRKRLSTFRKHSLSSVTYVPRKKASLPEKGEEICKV

- Activity [1]: inactive
- Activity [2]: inactive
- Activity [3]: inactive
- Activity [4]: inactive
- Activity [5]: inactive
- Activity [6]: inactive
- Activity [7]: inactive
- Activity (Homo sapiens [8]): inactive
- Activity [9]: inactive
- Activity [10]: inactive
- Activity [11]: inactive
- Activity (Homo sapiens [12]): inactive
- Activity [13]: inactive
- Activity [14]: inactive
- Activity (Homo sapiens [15]): inactive
- Activity (Homo sapiens [16]): inactive
- Activity (Homo sapiens [17]): inactive
- Activity [18]: inactive
- Activity (Homo sapiens [19]): inactive
- Activity [20]: inactive
- Activity [21]: inactive
- Activity [22]: inactive
- Activity [23]: inactive
- EC50 [24]: 0.0759 µM
- Activity (Homo sapiens [25]): inactive
- logD ([26]; 1.5 h): -4.02
- Activity [27]: inactive
- Activity [28]: inactive
- Activity (Homo sapiens [29]): inactive
- Activity [30]: Not Active
- Activity [31]: inactive
- Activity (Homo sapiens [32]): inactive
- Activity (Homo sapiens [33]): inactive
- Activity (Homo sapiens [34]): inactive
- Activity [35]: inactive
- Activity (Homo sapiens [36]): inactive
- Activity [37]: inactive
- Activity [38]: inactive
- Activity [39]: inactive
- Activity [40]: inactive
- Activity [41]: inactive
- Activity [42]: inactive
- Activity [43]: inactive
SMILES: N[C@]1(C(=O)O)[C@H]2[C@@H](C[C@@H]1F)[C@@H]2C(=O)O

- Activity [1]: inactive
- Activity [2]: inactive
- Activity [3]: inactive
- Activity [4]: inactive
- Activity [5]: inactive
- Activity [6]: inactive
- Activity [7]: inactive
- Activity (Homo sapiens [8]): inactive
- Activity [9]: inactive
- Activity [10]: inactive
- Activity [11]: inactive
- Activity (Homo sapiens [12]): inactive
- Activity [13]: inactive
- Activity [14]: inactive
- Activity (Homo sapiens [15]): inactive
- Activity (Homo sapiens [16]): inactive
- Activity (Homo sapiens [17]): inactive
- Activity [18]: inactive
- Activity (Homo sapiens [19]): inactive
- Activity [20]: inactive
- Activity [21]: inactive
- Activity [22]: inactive
- Activity [23]: inactive
- EC50 [24]: > 30 µM
- Activity (Homo sapiens [25]): inactive
- logD at 1.5 h ([26]; n-octanol/phosphate buffered saline): > 2.04
- Activity [27]: inactive
- Activity [28]: inactive
- Activity (Homo sapiens [29]): inactive
- Activity [30]: Not Active
- Activity [31]: inactive
- Activity (Homo sapiens [32]): inactive
- Activity (Homo sapiens [33]): inactive
- Activity (Homo sapiens [34]): inactive
- Activity [35]: inactive
- Activity (Homo sapiens [36]): inactive
- Activity [37]: inactive
- Activity [38]: inactive
- Activity [39]: inactive
- Activity [40]: inactive
- Activity [41]: inactive
- Activity [42]: inactive
- Activity [43]: inactive
SMILES: CC(C)[C@@H]1CC[C@@H](C)C[C@H]1OC(=O)O[C@@H](C)OC(=O)[C@H]1[C@@H]2C[C@H](F)[C@@](N)(C(=O)O)[C@@H]21
